Laboratory results reported in patent publication US20240350469A1, “TREATMENT OF LOWER RESPIRATORY TRACT INFECTION WITH TRADIPITANT” (Vanda Pharmaceuticals Inc., priority 2021, published 2024).

System: severe or critical COVID-19 infection
Assay: Randomized, double-blind, placebo-controlled study of tradipitant in hospitalized patients with COVID-19 pneumonia (interim analysis, ITT)
Assay type: in vivo
Conditions: ITT; for Hazard ratio (95% CI), responder as improvement of 2 or more points: tradipitant vs placebo, Cox model, >1 benefit for tradipitant
[1] = Day 7, ordinal score at baseline 2, tradipitant N = 4
[2] = Day 7, ordinal score at baseline 3, tradipitant N = 13
[3] = Day 7, ordinal score at baseline 4, tradipitant N = 9
[4] = Day 7, overall, tradipitant N = 28
[5] = Day 28, ordinal score at baseline 2, tradipitant N = 4
[6] = Day 28, ordinal score at baseline 3, tradipitant N = 13
[7] = Day 28, ordinal score at baseline 4, tradipitant N = 9
[8] = Day 28, overall, tradipitant N = 28
[9] = ordinal score at baseline 2, tradipitant N = 4
[10] = ordinal score at baseline 3, tradipitant N = 13

O=C(c1ccccc1Cl)c1cccnc1-c1nnn(Cc2cc(C(F)(F)F)cc(C(F)(F)F)c2)c1-c1ccncc1 [Tradipitant]
Median time to responder [1]: 4 days | Mortality, KM estimate [1]: 25.0% | No. of responders (improvement of 2 or more points on 7 point ordinal scale) [1]: 3 | Mortality, KM estimate [2]: 0.0% | No. of responders (improvement of 2 or more points on 7 point ordinal scale) [2]: 2 | Median time to responder [3]: 4 days | Mortality, KM estimate [3]: 25.0% | No. of responders (improvement of 2 or more points on 7 point ordinal scale) [3]: 6 | Mortality, KM estimate [4]: 9.8% | No. of responders (improvement of 2 or more points on 7 point ordinal scale) [4]: 13 | Hazard ratio (95% CI), responder as improvement of 2 or more points (Day 7, overall): 2.55 | Median time to responder [5]: 4 days | Mortality, KM estimate [5]: 50.0% | No. of responders (improvement of 2 or more points on 7 point ordinal scale) [5]: 3 | Median time to responder [6]: 27 days | Mortality, KM estimate [6]: 9.1% | No. of responders (improvement of 2 or more points on 7 point ordinal scale) [6]: 4 | Median time to responder [7]: 4 days | Mortality, KM estimate [7]: 25.0% | No. of responders (improvement of 2 or more points on 7 point ordinal scale) [7]: 7 | Median time to responder [8]: 10 days | Mortality, KM estimate [8]: 20.4% | No. of responders (improvement of 2 or more points on 7 point ordinal scale) [8]: 16 | Hazard ratio (95% CI), responder as improvement of 2 or more points (Day 28, overall): 1.55 | No. of deaths by day 7 [9]: 1 | No. of deaths by day 28 [9]: 2 | Ordinal Score at Day 7 = 1 (Death), % of patients [9]: (25.0) % | Ordinal Score at Day 7 = 1 (Death), no. of patients [9]: 1 | Ordinal Score at Day 7 = 2 (Hospitalized, on invasive mechanical ventilation or ECMO), % of patients [9]: (25.0) % | Ordinal Score at Day 7 = 2 (Hospitalized, on invasive mechanical ventilation or ECMO), no. of patients [9]: 1 | Ordinal Score at Day 7 = 3 (Hospitalized, on non-invasive ventilation or high flow oxygen devices), % of patients [9]: (0.0) % | Ordinal Score at Day 7 = 3 (Hospitalized, on non-invasive ventilation or high flow oxygen devices), no. of patients [9]: 0 | Ordinal Score at Day 7 = 4 (Hospitalized, requiring supplemental oxygen), % of patients [9]: (25.0) % | Ordinal Score at Day 7 = 4 (Hospitalized, requiring supplemental oxygen), no. of patients [9]: 1 | Ordinal Score at Day 7 = 5 (Hospitalized, not requiring supplemental oxygen), % of patients [9]: (25.0) % | Ordinal Score at Day 7 = 5 (Hospitalized, not requiring supplemental oxygen), no. of patients [9]: 1 | Ordinal Score at Day 7 = 7 (Not hospitalized), % of patients [9]: (0.0) % | Ordinal Score at Day 7 = 7 (Not hospitalized), no. of patients [9]: 0 | Ordinal Score at Day 28 = 1 (Death), % of patients [9]: (50.0) % | Ordinal Score at Day 28 = 1 (Death), no. of patients [9]: 2 | Ordinal Score at Day 28 = 2 (Hospitalized, on invasive mechanical ventilation or ECMO), % of patients [9]: (0.0) % | Ordinal Score at Day 28 = 2 (Hospitalized, on invasive mechanical ventilation or ECMO), no. of patients [9]: 0 | Ordinal Score at Day 28 = 3 (Hospitalized, on non-invasive ventilation or high flow oxygen devices), % of patients [9]: (0.0) % | Ordinal Score at Day 28 = 3 (Hospitalized, on non-invasive ventilation or high flow oxygen devices), no. of patients [9]: 0 | Ordinal Score at Day 28 = 4 (Hospitalized, requiring supplemental oxygen), % of patients [9]: (0.0) % | Ordinal Score at Day 28 = 4 (Hospitalized, requiring supplemental oxygen), no. of patients [9]: 0 | Ordinal Score at Day 28 = 7 (Not hospitalized), % of patients [9]: (50.0) % | Ordinal Score at Day 28 = 7 (Not hospitalized), no. of patients [9]: 2 | No. of deaths by day 7 [10]: 0 | No. of deaths by day 28 [10]: 1 | Ordinal Score at Day 7 = 1 (Death), % of patients [10]: (0.0) % | Ordinal Score at Day 7 = 1 (Death), no. of patients [10]: 0 | Ordinal Score at Day 7 = 2 (Hospitalized, on invasive mechanical ventilation or ECMO), % of patients [10]: (61.5) % | Ordinal Score at Day 7 = 2 (Hospitalized, on invasive mechanical ventilation or ECMO), no. of patients [10]: 8 | Ordinal Score at Day 7 = 3 (Hospitalized, on non-invasive ventilation or high flow oxygen devices), % of patients [10]: (23.1) % | Ordinal Score at Day 7 = 3 (Hospitalized, on non-invasive ventilation or high flow oxygen devices), no. of patients [10]: 3 | Ordinal Score at Day 7 = 4 (Hospitalized, requiring supplemental oxygen), % of patients [10]: (0.0) % | Ordinal Score at Day 7 = 4 (Hospitalized, requiring supplemental oxygen), no. of patients [10]: 0 | Ordinal Score at Day 7 = 5 (Hospitalized, not requiring supplemental oxygen), % of patients [10]: (7.7) % | Ordinal Score at Day 7 = 5 (Hospitalized, not requiring supplemental oxygen), no. of patients [10]: 1 | Ordinal Score at Day 7 = 7 (Not hospitalized), % of patients [10]: (7.7) %
